The values below come from patent US9938510B2, “Photobacterium sp. alpha-2-6-sialyltransferase variants” (The Regents of the University of California, priority 2014, dated 2018).

Assay [1] relates to Photobacterium sp. JH-ISH-224 α2-6-sialyltransferase Psp26ST(15-501)-His6, wild type, SEQ ID NO: 23. To be noted: apparent, cited from earlier work.
The test system of assay [2] is Photobacterium sp. JH-ISH-224 α2-6-sialyltransferase Psp26ST(15-501)-His6 A366G mutant, SEQ ID NO: 2. The assay can be described thus: Sialyltransferase kinetics, Psp26ST(15-501)-His6 A366G mutant. In kind it is biochemical. To be noted: apparent. The method, then:
Reactions were carried out in duplicate at 20° C. for 20 minutes in a total volume of 10 μL in a proper buffer at the optimal pH according to the pH profile of the wild-type enzyme (see, Ding, 2011, supra). When LacβMU was used as an acceptor, the conditions were: Tris-HCl buffer (200 mM, pH 8.0), enzyme (0.3 μM), varied concentrations of LacβMU (0.1, 0.25, 0.4, 1.0, 2.0, 4.0, and 6.0 mM) with a fixed concentration of CMP-Neu5Ac (1.0 mM) or varied concentrations of CMP-Neu5Ac (0.1, 0.25, 0.4, 1.0, 2.0, 4.0, and 6.0 mM) with a fixed concentration of LacβMU (1.0 mM). When GalNAcα2AA was used as an acceptor, the conditions were: NaOAc-HOAc buffer (200 mM, pH 5.0), enzyme (6 μM), varied concentrations of GalNAcα2AA (0.5, 0.8, 1.0, 2.0, 4.0, 8.0, and 10.0 mM) and a fixed concentration of CMP-Neu5Ac (4.0 mM) or varied concentrations of CMP-Neu5Ac (0.5, 1.0, 2.0, 4.0, 5.0, 8.0, and 10.0 mM) with a fixed concentration of GalNAcα2AA (1.0 mM). When GalNAcαSer was used as an acceptor, the conditions were: Tris-HCl buffer (200 mM, pH 8.0), enzyme (0.6 μM), varied concentrations of GalNAcαSer (0.1, 0.25, 0.5, 1.0, 2.0, 4.0, 8.0, and 10.0 mM) and a fixed concentration of CMP-Neu5Ac (2.0 mM). When GalNAcαThr was used as an acceptor, the conditions were: Tris-HCl buffer (200 mM, pH 8.0), enzyme (3.0 μM), varied concentrations of GalNAcαThr (0.5, 1.0, 2.0, 4.0, 10.0, 20.0, 40.0, 60.0 mM) and a fixed concentration of CMP-Neu5Ac (4.0 mM). Results analysis was performed using the HPLC system as described above for sialyltransferase activity assays. Apparent kinetic parameters were obtained by fitting the experimental data (the average values of duplicate assay results) into the Michaelis-Menten equation using Grafit 5.0.

The nature of assay [3]: Sialyltransferase activity assays, statements not tied to one acceptor (LacβMU, GalNAcα2AA, GalNAcαSer, GalNAcαThr). In kind it is biochemical. The method, then: When LacβMU was used as an acceptor, the assay was performed in duplicate in 10 μL of Tris-HCl buffer (100 mM, pH 8.0) containing CMP-Neu5Ac (1 mM), LacβMU (1 mM), MgCl2 (20 mM), wild-type Psp2,6ST(15-501)-His6 or its mutant (0.3 μM). When an α-GalNAc-terminated acceptor was used, the assay was performed in duplicate in 10 μL of Tris-HCl buffer (100 mM, pH 8.0 for GalNAcαSer/Thr) or NaOAc-HOAc (100 mM, pH 5.0 for GalNAcα2AA) containing CMP-Neu5Ac (1.5 mM), the acceptor (1 mM), MgCl2 (20 mM), wild-type Psp2,6ST(15-501)-His6 or its mutant (3.0 μM). Reactions were allowed to proceed at 20° C. for 20 min and stopped by adding 10 μL of cold ethanol. The analysis of sialylated product conversion was performed using the HPLC system as described above for sialyltransferase activity assay. The 4-methylumbelliferone (MU)-labeled fluorescent acceptor and the product formed were detected with excitation at 325 nm and emission at 372 nm. The 2-aminobenzoic acid (2AA)-labeled fluorescent acceptors and the products formed were detected with excitation at 315 nm and emission at 400 nm. The 9-fluorenylmethylcarbamate (Fmoc)-labeled fluorescent acceptors and the products formed were detected with excitation at 262 nm and emission at 313 nm.

The nature of assay [4]: One-pot two-enzyme (OP2E) sialylation with NmCSS, GalNAcαThr as acceptor. In kind it is biochemical. To be noted: 2.5 equivalents of Neu5Ac and 5.0 equivalents of CTP. From the text:
White bars: GalNAcαSer was used as an acceptor with 1 equivalent of Neu5Ac and 1.5 equivalents of CTP. Grey bars: GalNAcαSer was used as an acceptor with 2.5 equivalents of Neu5Ac and 5.0 equivalents of CTP. Black bars: GalNAcαThr was used as an acceptor with 2.5 equivalents of Neu5Ac and 5.0 equivalents of CTP.
In this system, CTP and Neu5Ac were used by NmCSS for the formation of CMP-Neu5Ac in situ (see also, Yu and Chen, et al. Bioorg. Med. Chem. 2004, 12, 6427-6435). CMP-Neu5Ac was used as the donor substrate for Psp26ST(15-501)-His6 or its mutants. […] For example, using 1 equivalent of Neu5Ac and 1.5 equivalents of CTP in the one-pot two-enzyme (OP2E) reaction (white bars in FIG. 6) improved the GalNAcαSer α2-6-sialylation reaction yields from less than 6% (1 equivalent CMP-Neu5Ac was used) (FIG. 5B) to 32-51% for W365A, W365G, W365S mutants. Similarly, the OP2E reaction improved the GalNAcαSer α2-6-sialylation reaction yields from 40% and 37% to 75% and 67% for A366G mutant and the wild-type enzyme, respectively. Increasing the concentrations of Neu5Ac and CTP to 2.5 and 5.0 equivalents further improved the reaction yields to more than 67% for Psp26ST(15-501)-His6 and its mutants ([…]). […] Therefore, in situ generation of CMP-Neu5Ac, the sugar nucleotide donor for sialyltransferases, was proven an efficient method to enhance the yields for sialylation reactions catalyzed not only by the wild-type enzymes but also sialyltransferase mutants.

Setting [5] is: varied LacβMU, CMP-Neu5Ac 1.0 mM, Tris-HCl pH 8.0, 20° C.

Like-named read-outs stand apart in the source and are kept apart here.

As to `CC(=O)N[C@H]1[C@@H](O[C@H](C)[C@H](N)C(=O)O)O[C@H](CO)[C@H](O)[C@@H]1O` [GalNAcαOThr], the Michaelis-Menten constant (Km) in assay [1] (acceptor GalNAcαOThr) is 5.9 ± 1.6 mM; in assay [2] (varied GalNAcαThr, CMP-Neu5Ac 4.0 mM, Tris-HCl pH 8.0, 20° C.) it was 7.2 ± 3 mM. Regarding GalNAcα2AA, the Km is 9.5 ± 2.7 mM in assay [1] (acceptor GalNAcα2AA) and 5.5 ± 1 mM in assay [2] (varied GalNAcα2AA, CMP-Neu5Ac 4.0 mM, NaOAc-HOAc pH 5.0, 20° C.). In the case of `CC(=O)N[C@H]1[C@@H](OC[C@H](N)C(=O)O)O[C@H](CO)[C@H](O)[C@@H]1O` [GalNAcαOSer], the Km is 1.4 ± 0.1 mM in assay [1] (acceptor GalNAcαOSer) and 1.7 ± 0.7 mM in assay [2] (varied GalNAcαSer, CMP-Neu5Ac 2.0 mM, Tris-HCl pH 8.0, 20° C.).

In the case of `Cc1cc(=O)oc2cc(O[C@@H]3O[C@H](CO)[C@@H](O[C@@H]4O[C@H](CO)[C@H](O)[C@H](O)[C@H]4O)[C@H](O)[C@H]3O)ccc12` [LacβMU], in assay [1] (acceptor LacβMU), the Km is 0.36 mM and the kcat entry is recorded as “(1.0 ± 0.1) × 10^2 min^−1”. In assay [2] (setting [5]), the Km amounted to 0.41 mM and the kcat entry is “(1.0 ± 0.1) × 10^2 min^−1”.

B1: R153G: Psp26ST(15-501)-His6 with R153G point mutation; SEQ ID NO: 10 (protein)
chain: CNNSEENTQSIIKNDINKTIIDEEYVNLEPINQSNISFTKHSWVQTCGTQQLLTEQNKESISLSVVAPRLDDDEKYCFDFNGVSNKGEKYITKVTLNVVAPSLEVYVDHASLPTLQQLMDIIKSEEENPTAQRYIAWGGIVPTDEQMKELNITSFALINNHTPADLVQEIVKQAQTKHRLNVKLSSNTAHSFDNLVPILKELNSFNNVTVTNIDLYDDGSAEYVNLYNWRDTLNKTDNLKIGKDYLEDVINGINEDTSNTGTSSVYNWQKLYPANYHFLRKDYLTLEPSLHELRDYIGDSLKQMQWDGFKKFNSKQQELFLSIVNFDKQKLQNEYNSSNLPNFVFTGTTVWAGNHEREYYAKQQINVINNAINESSPHYLGNSYDLFFKGHPGGGIINTLIMQNYPSMVDIPSKISFEVLMMTDMLPDAVAGIASSLYFTIPAEKIKFIVFTSTETITDRETALRSPLVQVMIKLGIVKEENVLFWA
modifications: C-terminal His6; Synthetic Psp26ST(15-501) R153G
As for B1, the “sialylation activity compared to wild-type” value in assay [3] was “knocked out the sialylation activity completely”.

B2: W365G: Psp26ST(15-501)-His6 with W365G point mutation; SEQ ID NO: 4 (protein)
chain: CNNSEENTQSIIKNDINKTIIDEEYVNLEPINQSNISFTKHSWVQTCGTQQLLTEQNKESISLSVVAPRLDDDEKYCFDFNGVSNKGEKYITKVTLNVVAPSLEVYVDHASLPTLQQLMDIIKSEEENPTAQRYIAWGRIVPTDEQMKELNITSFALINNHTPADLVQEIVKQAQTKHRLNVKLSSNTAHSFDNLVPILKELNSFNNVTVTNIDLYDDGSAEYVNLYNWRDTLNKTDNLKIGKDYLEDVINGINEDTSNTGTSSVYNWQKLYPANYHFLRKDYLTLEPSLHELRDYIGDSLKQMQWDGFKKFNSKQQELFLSIVNFDKQKLQNEYNSSNLPNFVFTGTTVGAGNHEREYYAKQQINVINNAINESSPHYLGNSYDLFFKGHPGGGIINTLIMQNYPSMVDIPSKISFEVLMMTDMLPDAVAGIASSLYFTIPAEKIKFIVFTSTETITDRETALRSPLVQVMIKLGIVKEENVLFWA
modifications: C-terminal His6; Synthetic Psp26ST(15-501) W365G
As to B2, the “yield of Neu5Acα2-6GalNAcαThr from GalNAcαThr, OP2E” value in assay [4] turned out to be 91%.

B3: W365A: Psp26ST(15-501)-His6 with W365A point mutation; SEQ ID NO: 6 (protein)
chain: CNNSEENTQSIIKNDINKTIIDEEYVNLEPINQSNISFTKHSWVQTCGTQQLLTEQNKESISLSVVAPRLDDDEKYCFDFNGVSNKGEKYITKVTLNVVAPSLEVYVDHASLPTLQQLMDIIKSEEENPTAQRYIAWGRIVPTDEQMKELNITSFALINNHTPADLVQEIVKQAQTKHRLNVKLSSNTAHSFDNLVPILKELNSFNNVTVTNIDLYDDGSAEYVNLYNWRDTLNKTDNLKIGKDYLEDVINGINEDTSNTGTSSVYNWQKLYPANYHFLRKDYLTLEPSLHELRDYIGDSLKQMQWDGFKKFNSKQQELFLSIVNFDKQKLQNEYNSSNLPNFVFTGTTVAAGNHEREYYAKQQINVINNAINESSPHYLGNSYDLFFKGHPGGGIINTLIMQNYPSMVDIPSKISFEVLMMTDMLPDAVAGIASSLYFTIPAEKIKFIVFTSTETITDRETALRSPLVQVMIKLGIVKEENVLFWA
modifications: C-terminal His6; Synthetic Psp26ST(15-501) W365A
B3: the “yield of Neu5Acα2-6GalNAcαThr from GalNAcαThr, OP2E” value in assay [4] was 85%.

B4: A124D: Psp26ST(15-501)-His6 with A124D point mutation; SEQ ID NO: 12 (protein)
chain: CNNSEENTQSIIKNDINKTIIDEEYVNLEPINQSNISFTKHSWVQTCGTQQLLTEQNKESISLSVVAPRLDDDEKYCFDFNGVSNKGEKYITKVTLNVVAPSLEVYVDHDSLPTLQQLMDIIKSEEENPTAQRYIAWGRIVPTDEQMKELNITSFALINNHTPADLVQEIVKQAQTKHRLNVKLSSNTAHSFDNLVPILKELNSFNNVTVTNIDLYDDGSAEYVNLYNWRDTLNKTDNLKIGKDYLEDVINGINEDTSNTGTSSVYNWQKLYPANYHFLRKDYLTLEPSLHELRDYIGDSLKQMQWDGFKKFNSKQQELFLSIVNFDKQKLQNEYNSSNLPNFVFTGTTVWAGNHEREYYAKQQINVINNAINESSPHYLGNSYDLFFKGHPGGGIINTLIMQNYPSMVDIPSKISFEVLMMTDMLPDAVAGIASSLYFTIPAEKIKFIVFTSTETITDRETALRSPLVQVMIKLGIVKEENVLFWA
modifications: C-terminal His6; Synthetic Psp26ST(15-501) A124D
For the molecule B4, the “sialylation activity compared to wild-type” value in assay [3] is on record as “lost sialylation activity”.
